Assay results from PubChem BioAssay (NCI).
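Results reflect a 48-hour exposure of cells in 96-well plates to compound at five concentrations. GI50 is the concentration that inhibits growth by half. TGI: total growth inhibition.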

Tests used:
Assay in all cases: DTP human tumour cell line panel, 48 h
LOX IMVI melanoma = test system: LOX IMVI melanoma
RPMI-8226 leukemia = test system: RPMI-8226 leukemia
HL-60(TB) leukemia = test system: HL-60(TB) leukemia
MDA-MB-231 breast = test system: MDA-MB-231 breast
IGROV1 ovarian = test system: IGROV1 ovarian
RXF 393 renal = test system: RXF 393 renal
T-47D breast = test system: T-47D breast
SNB-75 CNS = test system: SNB-75 CNS
A498 renal = test system: A498 renal
HOP-62 NSCLC = test system: HOP-62 NSCLC
NCI-H226 lung = test system: NCI-H226 lung
SW-620 colon = test system: SW-620 colon
SF-295 CNS = test system: SF-295 CNS
DU-145 prostate = test system: DU-145 prostate
COLO 205 colon = test system: COLO 205 colon
SF-539 CNS = test system: SF-539 CNS
TK-10 renal = test system: TK-10 renal
UACC-62 melanoma = test system: UACC-62 melanoma
OVCAR-3 ovarian = test system: OVCAR-3 ovarian
SN12C renal = test system: SN12C renal
OVCAR-5 ovarian = test system: OVCAR-5 ovarian
U251 CNS = test system: U251 CNS
KM12 colon = test system: KM12 colon
EKVX NSCLC = test system: EKVX NSCLC
786-0 renal = test system: 786-0 renal
ACHN renal = test system: ACHN renal
NCI-H522 lung = test system: NCI-H522 lung
HCT-116 colon = test system: HCT-116 colon
M14 melanoma = test system: M14 melanoma
NCI-H23 lung = test system: NCI-H23 lung
CAKI-1 renal = test system: CAKI-1 renal
CCRF-CEM leukemia = test system: CCRF-CEM leukemia
SK-OV-3 ovarian = test system: SK-OV-3 ovarian
MALME-3M melanoma = test system: MALME-3M melanoma
BT-549 breast = test system: BT-549 breast
UO-31 renal = test system: UO-31 renal
NCI/ADR-RES ovarian = test system: NCI/ADR-RES ovarian
HCC-2998 colon = test system: HCC-2998 colon
OVCAR-8 ovarian = test system: OVCAR-8 ovarian
A549 NSCLC = test system: A549 NSCLC
SK-MEL-28 melanoma = test system: SK-MEL-28 melanoma
UACC-257 melanoma = test system: UACC-257 melanoma
MDA-MB-435 = test system: MDA-MB-435
SK-MEL-2 melanoma = test system: SK-MEL-2 melanoma
HT29 colon = test system: HT29 colon
OVCAR-4 ovarian = test system: OVCAR-4 ovarian
HS 578T breast = test system: HS 578T breast
K-562 leukemia = test system: K-562 leukemia
SR leukemia = test system: SR leukemia
HCT-15 colon = test system: HCT-15 colon
PC-3 prostate = test system: PC-3 prostate

For `C=CCC(N[C@H](CO)c1ccccc1)c1ccc2ccccc2n1` (some centres not stated), the GI50 (LOX IMVI melanoma) was > 100 µM, the TGI (LOX IMVI melanoma) was > 100 µM and the GI50 (RPMI-8226 leukemia) was > 100 µM. For the same compound, the TGI (RPMI-8226 leukemia) was > 100 µM, the GI50 (HL-60(TB) leukemia) was 48.7 µM and the TGI (HL-60(TB) leukemia) was > 100 µM. For the same compound, the GI50 (MDA-MB-231 breast) was > 100 µM, the TGI (MDA-MB-231 breast) was > 100 µM and the GI50 (IGROV1 ovarian) was 45.9 µM. For the same compound, the TGI (IGROV1 ovarian) was > 100 µM, the GI50 (RXF 393 renal) was > 100 µM and the TGI (RXF 393 renal) was > 100 µM. The GI50 (T-47D breast) was > 100 µM, the TGI (T-47D breast) was > 100 µM and the GI50 (SNB-75 CNS) was > 100 µM. The TGI (SNB-75 CNS) was > 100 µM, the GI50 (A498 renal) was 29.3 µM and the TGI (A498 renal) was > 100 µM. For the same compound, the GI50 (HOP-62 NSCLC) was > 100 µM, the TGI (HOP-62 NSCLC) was > 100 µM and the GI50 (NCI-H226 lung) was > 100 µM. The TGI (NCI-H226 lung) was > 100 µM, the GI50 (SW-620 colon) was > 100 µM and the TGI (SW-620 colon) was > 100 µM. The GI50 (SF-295 CNS) was > 100 µM, the TGI (SF-295 CNS) was > 100 µM and the GI50 (DU-145 prostate) was > 100 µM. The TGI (DU-145 prostate) was > 100 µM, the GI50 (COLO 205 colon) was > 100 µM and the TGI (COLO 205 colon) was > 100 µM. For the same compound, the GI50 (SF-539 CNS) was > 100 µM, the TGI (SF-539 CNS) was > 100 µM and the GI50 (TK-10 renal) was > 100 µM. For the same compound, the TGI (TK-10 renal) was > 100 µM, the GI50 (UACC-62 melanoma) was > 100 µM and the TGI (UACC-62 melanoma) was > 100 µM. The GI50 (OVCAR-3 ovarian) was > 100 µM, the TGI (OVCAR-3 ovarian) was > 100 µM and the GI50 (SN12C renal) was > 100 µM. The TGI (SN12C renal) was > 100 µM, the GI50 (OVCAR-5 ovarian) was > 100 µM and the TGI (OVCAR-5 ovarian) was > 100 µM. The GI50 (U251 CNS) was > 100 µM, the TGI (U251 CNS) was > 100 µM and the GI50 (KM12 colon) was > 100 µM. The TGI (KM12 colon) was > 100 µM, the GI50 (EKVX NSCLC) was > 100 µM and the TGI (EKVX NSCLC) was > 100 µM. The GI50 (786-0 renal) was > 100 µM, the TGI (786-0 renal) was > 100 µM and the GI50 (ACHN renal) was > 100 µM. The TGI (ACHN renal) was > 100 µM, the GI50 (NCI-H522 lung) was > 100 µM and the TGI (NCI-H522 lung) was > 100 µM. The GI50 (HCT-116 colon) was > 100 µM, the TGI (HCT-116 colon) was > 100 µM and the GI50 (M14 melanoma) was > 100 µM. The TGI (M14 melanoma) was > 100 µM, the GI50 (NCI-H23 lung) was > 100 µM and the TGI (NCI-H23 lung) was > 100 µM. The GI50 (CAKI-1 renal) was > 100 µM, the TGI (CAKI-1 renal) was > 100 µM and the GI50 (CCRF-CEM leukemia) was > 100 µM. For the same compound, the TGI (CCRF-CEM leukemia) was > 100 µM, the GI50 (SK-OV-3 ovarian) was > 100 µM and the TGI (SK-OV-3 ovarian) was > 100 µM. For the same compound, the GI50 (MALME-3M melanoma) was > 100 µM, the TGI (MALME-3M melanoma) was > 100 µM and the GI50 (BT-549 breast) was > 100 µM. For the same compound, the TGI (BT-549 breast) was > 100 µM, the GI50 (UO-31 renal) was > 100 µM and the TGI (UO-31 renal) was > 100 µM. For the same compound, the GI50 (NCI/ADR-RES ovarian) was > 100 µM, the TGI (NCI/ADR-RES ovarian) was > 100 µM and the GI50 (HCC-2998 colon) was > 100 µM. For the same compound, the TGI (HCC-2998 colon) was > 100 µM, the GI50 (OVCAR-8 ovarian) was > 100 µM and the TGI (OVCAR-8 ovarian) was > 100 µM. For the same compound, the GI50 (A549 NSCLC) was > 100 µM, the TGI (A549 NSCLC) was > 100 µM and the GI50 (SK-MEL-28 melanoma) was > 100 µM. The TGI (SK-MEL-28 melanoma) was > 100 µM, the GI50 (UACC-257 melanoma) was > 100 µM and the TGI (UACC-257 melanoma) was > 100 µM. For the same compound, the GI50 (MDA-MB-435) was > 100 µM, the TGI (MDA-MB-435) was > 100 µM and the GI50 (SK-MEL-2 melanoma) was > 100 µM. For the same compound, the TGI (SK-MEL-2 melanoma) was > 100 µM, the GI50 (HT29 colon) was > 100 µM and the TGI (HT29 colon) was > 100 µM. For the same compound, the GI50 (OVCAR-4 ovarian) was > 100 µM, the TGI (OVCAR-4 ovarian) was > 100 µM and the GI50 (HS 578T breast) was 22.5 µM. For the same compound, the TGI (HS 578T breast) was > 100 µM, the GI50 (K-562 leukemia) was > 100 µM and the TGI (K-562 leukemia) was > 100 µM. For the same compound, the GI50 (SR leukemia) was > 100 µM, the TGI (SR leukemia) was > 100 µM and the GI50 (HCT-15 colon) was > 100 µM. For the same compound, the TGI (HCT-15 colon) was > 100 µM, the GI50 (PC-3 prostate) was > 100 µM and the TGI (PC-3 prostate) was > 100 µM.
